Measured values published in patent US20070128217A1 (priority 2003, published 2007).

Tests used:
[1] = system: control sera (pooled serum of ten healthy LUMC hospital workers; commercial negative donor pooled serum from the Dutch bloodbank); type: binding, human; set-up: Binding of Control serum LUMC to linear peptides / Binding of Control serum Blood-bank to linear peptides / Binding of Control serum LUMC to looped peptides / Binding of Control Serum Blood-Bank to Looped peptides / Binding of Control serum LUMC to linear peptides of the protein M of SARS-CoV Urbani / Binding of Control serum Blood-bank to linear peptides of the protein M of SARS-CoV Urbani / Binding of Control serum LUMC to looped peptides of the protein M of SARS-CoV Urbani / Binding of Control Serum Blood-Bank to Looped peptides of the protein M of SARS-CoV Urbani: unit not given here
[2] = system: rabbit serum obtained by immunizing a rabbit with the SARS-CoV strain Frankfurt 1; type: binding; set-up: Binding of a rabbit serum to linear peptides / Binding of a rabbit serum to looped peptides / Rabbit serum linear peptides / Rabbit serum looped peptides / Binding of a rabbit serum to linear peptides of protein N of SARS-CoV Urbani (Rabbit serum linear peptides) / Binding of a rabbit serum to looped/cyclic peptides of protein N of SARS-CoV Urbani (Rabbit serum looped peptides): unit not given here
[3] = system: antibodies in sera from SARS patients (sera 1a, 1b, 2, 6, 37, 62, London, SARS-yellow, SARS-green); type: binding, human; set-up: Binding of serum 6 to linear peptides of protein X1 of SARS-CoV Urbani / Binding of serum 37 to linear peptides of protein X1 of SARS-CoV Urbani / Binding of serum 6 to looped/cyclic peptide (PEPSCAN-ELISA) / Binding of serum 37 to looped/cyclic peptide (PEPSCAN-ELISA) / Binding of serum 37 to looped/cyclic peptides of protein X1 of SARS-CoV Urbani / Binding of serum 6 to linear peptides of protein X2 / Binding of serum 37 to linear peptides of protein X2 / Binding of serum 37 to looped/cyclic peptides of protein X2 of SARS-CoV Urbani / Binding of serum 6 to linear peptides of protein M of SARS-CoV Urbani / Binding of serum 37 to linear peptides of protein M of SARS-CoV Urbani / Binding of serum 6 to looped/cyclic peptides of protein M of SARS-CoV Urbani / Binding of serum 37 to looped/cyclic peptides of protein M of SARS-CoV Urbani / Binding of serum 6 to linear peptides of protein X3 of SARS-CoV Urbani / Binding of serum 37 to linear peptides of protein X3 of SARS-CoV Urbani / Binding of serum 37 to looped/cyclic peptides of protein X3 of SARS-CoV Urbani / Binding of serum 6 to linear peptides of protein X4 of SARS-CoV Urbani / Binding of serum 37 to linear peptides of protein X4 of SARS-CoV Urbani / Binding of serum 37 to looped/cyclic peptides of protein X4 of SARS-CoV Urbani / Binding of serum 6 to linear peptides of protein X5 of SARS-CoV Urbani / Binding of serum 37 to linear peptides of protein X5 of SARS-CoV Urbani / Binding of serum 37 to looped/cyclic peptides of protein X5 of SARS-CoV Urbani / Binding of serum 6 to linear peptides of protein N of SARS-CoV Urbani / Binding of serum 37 to linear peptides of protein N of SARS-CoV Urbani / Binding of serum 6 to linear peptide (PEPSCAN-ELISA) / Binding of serum 1a to looped/cyclic peptides of protein N of SARS-CoV Urbani / Binding of serum 1b to looped/cyclic peptides of protein N of SARS-CoV Urbani / Binding of serum 2 to looped/cyclic peptides of protein N of SARS-CoV Urbani / Binding of serum 6 to looped/cyclic peptides of protein N of SARS-CoV Urbani / Binding of serum 37 to looped/cyclic peptides of protein N of SARS-CoV Urbani / Binding of serum 62 to looped/cyclic peptides of protein N of SARS-CoV Urbani / Binding of serum London to looped/cyclic peptides of protein N of SARS-CoV Urbani / Binding of serum SARS-green to looped/cyclic peptides of protein N of SARS-CoV Urbani: unit not given here

CPSGTYEGNSPFHPL
Binding of Control Serum Blood-Bank to Looped peptides [1]: 0.8
Binding of Control serum Blood-bank to linear peptides [1]: 0.7
Binding of Control serum LUMC to linear peptides [1]: 0.6
Binding of Control serum LUMC to looped peptides [1]: 0.8

TTLFAGTHITMTTVY
Binding of a rabbit serum to linear peptides [2]: 0.6
Binding of a rabbit serum to looped peptides [2]: 0.3

TLFAGTHITMTTVYH
Binding of a rabbit serum to linear peptides [2]: 0.7
Binding of a rabbit serum to looped peptides [2]: 0.5

MMPTTLFAGTHITMT
Binding of a rabbit serum to linear peptides [2]: 0.6
Binding of a rabbit serum to looped peptides [2]: 0.6

PTTLFAGTHITMTTV
Binding of a rabbit serum to linear peptides [2]: 0.8
Binding of a rabbit serum to looped peptides [2]: 0.4

TLGSITAQPVKTDNA
Binding of Control Serum Blood-Bank to Looped peptides [1]: 0.6
Binding of Control serum Blood-bank to linear peptides [1]: 0.5
Binding of Control serum LUMC to linear peptides [1]: 0.7
Binding of Control serum LUMC to looped peptides [1]: 0.6

WQLALYKGFQFTCNL
Binding of Control Serum Blood-Bank to Looped peptides [1]: 0.6
Binding of Control serum Blood-bank to linear peptides [1]: 0.6
Binding of Control serum LUMC to linear peptides [1]: 0.6
Binding of Control serum LUMC to looped peptides [1]: 0.7

QLALYKGFQPICNLL
Binding of serum 1a to linear peptides of protein X1 of SARS-CoV Urbani [3]: 0.6
Binding of serum 1b to linear peptides of protein X1 of SARS-CoV Urbani [3]: 0.5
Binding of serum 2 to linear peptides of protein X1 of SARS-CoV Urbani [3]: 0.4
Binding of serum 6 to linear peptides of protein X1 of SARS-CoV Urbani [3]: 0.5
Binding of serum 37 to linear peptides of protein X1 of SARS-CoV Urbani [3]: 0.6
Binding of serum 62 to linear peptides of protein X1 of SARS-CoV Urbani [3]: 0.6
Binding of serum London to linear peptides of protein X1 of SARS-CoV Urbani [3]: 0.2
Binding of serum SARS-green to linear peptides of protein X1 of SARS-CoV Urbani [3]: 0.2
Binding of serum SARS-yellow to linear peptides of protein X1 of SARS-CoV Urbani [3]: 0.5

ASTVHATATIPLQAS
Binding of a rabbit serum to linear peptides [2]: 0.9
Binding of a rabbit serum to looped peptides [2]: 0.6

IARCWYLHEGHQTAA
Rabbit serum linear peptides [2]: 0.7
Rabbit serum looped peptides [2]: 0.3

NSPFHPLADNKFALT
Rabbit serum linear peptides [2]: 0.5
Rabbit serum looped peptides [2]: 0.7

KQLLEQWNLVIGFLF
Binding of serum 1a to linear peptides of protein M of SARS-CoV Urbani [3]: 0.7
Binding of serum 1a to looped/cyclic peptides of protein M of SARS-CoV Urbani [3]: 0.7
Binding of serum 1b to linear peptides of protein M of SARS-CoV Urbani [3]: 0.6
Binding of serum 1b to looped/cyclic peptides of protein M of SARS-CoV Urbani [3]: 0.6
Binding of serum 2 to linear peptides of protein M of SARS-CoV Urbani [3]: 0.4
Binding of serum 2 to looped/cyclic peptides of protein M of SARS-CoV Urbani [3]: 0.5
Binding of serum 6 to linear peptides of protein M of SARS-CoV Urbani [3]: 0.3
Binding of serum 6 to looped/cyclic peptides of protein M of SARS-CoV Urbani [3]: 1.0
Binding of serum 37 to linear peptides of protein M of SARS-CoV Urbani [3]: 0.3
Binding of serum 37 to looped/cyclic peptides of protein M of SARS-CoV Urbani [3]: 0.5
Binding of serum 62 to linear peptides of protein M of SARS-CoV Urbani [3]: 0.4
Binding of serum 62 to looped/cyclic peptides of protein M of SARS-CoV Urbani [3]: 0.7
Binding of serum London to linear peptides of protein M of SARS-CoV Urbani [3]: 0.3
Binding of serum London to looped/cyclic peptides of protein M of SARS-CoV Urbani [3]: 0.3
Binding of serum SARS-green to linear peptides of protein M of SARS-CoV Urbani [3]: 0.4
Binding of serum SARS-green to looped/cyclic peptides of protein M of SARS-CoV Urbani [3]: 0.4
Binding of serum SARS-yellow to linear peptides of protein M of SARS-CoV Urbani [3]: 0.2
Binding of serum SARS-yellow to looped/cyclic peptides of protein M of SARS-CoV Urbani [3]: 0.8
Binding of Control Serum Blood-Bank to Looped peptides of the protein M of SARS-CoV Urbani [1]: 0.6
Binding of Control serum Blood-bank to linear peptides of the protein M of SARS-CoV Urbani [1]: 0.5
Binding of Control serum LUMC to linear peptides of the protein M of SARS-CoV Urbani [1]: 0.6
Binding of Control serum LUMC to looped peptides of the protein M of SARS-CoV Urbani [1]: 0.7

ACRTIMRCWLCWKCK
Binding of serum 1a to looped/cyclic peptide (PEPSCAN-ELISA) [3]: 0.7
Binding of serum 1b to looped/cyclic peptide (PEPSCAN-ELISA) [3]: 0.9
Binding of serum 2 to looped/cyclic peptide (PEPSCAN-ELISA) [3]: 0.6
Binding of serum 6 to looped/cyclic peptide (PEPSCAN-ELISA) [3]: 0.3
Binding of serum 37 to looped/cyclic peptide (PEPSCAN-ELISA) [3]: 0.8
Binding of serum 62 to looped/cyclic peptide (PEPSCAN-ELISA) [3]: 0.5
Binding of serum London to looped/cyclic peptide (PEPSCAN-ELISA) [3]: 0.2
Binding of serum SARS-green to looped/cyclic peptide (PEPSCAN-ELISA) [3]: 1.2
Binding of serum SARS-yellow to looped/cyclic peptide (PEPSCAN-ELISA) [3]: 0.7

HRWHTMVQTGTPNVT
Binding of Control Serum Blood-Bank to Looped peptides [1]: 0.4
Binding of Control serum Blood-bank to linear peptides [1]: 0.8
Binding of Control serum LUMC to linear peptides [1]: 0.4
Binding of Control serum LUMC to looped peptides [1]: 0.4
